Data as given in patent publication US12096770B2, “Method for preparing an insect repellent agent” (CENTRE NATIONAL DE LA RECHERCHE SCIENTIFIQUE, priority 2019, dated 2024).
In brackets after ≈: the same amount, converted by molar mass. Several values for one entry are separate records, joined by “and”; a condition that tells them apart may be missing. Identical values can stand only once.

Tests used:
Aedes albopictus = test: Behavioural (blood-feeding) repellency test on tiger mosquitoes with feeders covered by pig intestinal skin; assay type: in vivo; details: for % Repellency: 1 hour, relative to EtOH negative control, mean ± standard deviation of 16 replicates; for effect of added compound on repellent activity of PMD: added to commercial cis/trans PMD 75/25 at 200 mg/m^2 in EtOH
Procedure: Testing was performed as to the activity of the compositions obtained by the method according to the invention on the behaviour of the tiger mosquito, Aedes albopictus.
The behavioural tests were carried out at the Montpellier Vectopôle, which is a research centre that collaborates with the WHO for the evaluation of insecticides in public health.
The tests were carried out on mosquitoes aged 5 to 9 days old after their evolution from pupae to adult.
In preparation for the experiment, the mosquitoes were […] on the day prior thereto, in order to promote their appetite for the test to occur the subsequent day.
Each cup contains a damp cotton. The female mosquitoes were removed from the cage making use of a tube that enables aspiration thereof. They were then introduced into each experiment cup (10 mosquitoes per cup).
The tests were carried out on plexiglass racks serving as supports for glass bells known as feeders. The latter are connected to each other by plastic pipes wherein water circulates at 37° C.
Pig intestinal skin was used to mimic human skin in the experiment. The pieces of intestinal skin are positioned and stretched over the feeders.
The repellent is diluted in ethyl alcohol (aka ethanol or EtOH) and is deposited on the skin using a micropipette and then spread over the entire surface. […] If the composition tested is a mixture of at least two compounds, one of which is PMD, the said composition is diluted in ethanol until 0.02036 mg/μL of PMD is obtained.
The feeders are turned over, then 300 μL of sheep blood are placed in each feeder. The cups are inserted under each feeder.
Polystyrene plates are inserted between the lines of repellent so as to avoid possible interactions of odours. The duration of the experiment is one hour. The cups are then placed in a freezer at −20° C. for a period of 40 minutes. After freezing, the contents of one cup are placed between two sheets of paper, with the entirety thereof then being crushed with a plexiglass plate. The counting of the blood-fed (engorged) mosquitoes is done based on the number of red dots on the sheet of paper. The results are expressed as a percentage of repellency (100% −X% of blood-feeding). The percentage of blood-feeding is defined in relation to the EtOH negative control. DEET and commercial cis/trans PMD 75/25 at 200 mg/m^2 were used as positive controls.
The results obtained were statistically analysed using R software (R Development Core Team. R: A language and environment for statistical computing. R Foundation for Statistical Computing, Vienna, Austria. ISBN 3-900051-07-0, 2013) and represent the mean of 16 replicates. The percentage repellency values are presented as a mean±standard deviation. The R software also makes it possible to compare two percentage repellency values by means of calculating the quantity p. This quantity p is a probability.

acetylcholinesterase = details: cited from earlier work
[1] = test system: olfactory receptors of Aedes albopictus; test: Orientation tests in ElectroAntennogGraphy coupled with Gas Chromatography
Procedure: Orientation tests in ElectroAntennogGraphy coupled with Gas Chromatography were carried out.

Compound | % Repellency (Aedes albopictus; 200 mg/m^2 (of PMD) in EtOH) | effect of added compound on repellent activity of PMD (Aedes albopictus) | other results
CC1CCC(C(C)(C)O)C(O)C1 (mixture of isomers) [Commercial cis/trans PMD 60/40, p-menthane-3,8-diol] | 68 ± 15% | – | –
CC1CCC(C(C)(C)O)C(O)C1 (mixture of isomers) [Commercial cis/trans PMD 75/25 derived from R citronellal] [p-menthane-3,8-diol] | 24 ± 2% | – | –
CC1CCC(C(C)(C)O)C(O)C1 (mixture of isomers) [Commercial cis/trans PMD 75/25 derived from S citronellal] [p-menthane-3,8-diol] | 41 ± 3% | – | –
CC1CCC(C(C)(C)O)C(O)C1 (racemic) [Commercial cis/trans PMD 75/25, p-menthane-3,8-diol] | 79 ± 4% and 59 ± 14% and 68 ± 2% and 55 ± 10% and 60 ± 5% and 65 ± 8% and 69 ± 13% and 63 ± 9% and 59 ± 9% and 56 ± 13% | – | % Repellency (Aedes albopictus; 200 mg/m^2 (of PMD) in EtOH, listed as Commercial cis/trans PMD 75/25 derived from RS citronellal (racemic mixture)): 34 ± 1%; ED 50 expressed as concentration (Aedes albopictus; concentration in EtOH tantamount to 200 mg/m^2): 20.36 mg/mL (≈ 118 mM); ED 50 (median effective dose) (Aedes albopictus; dose deposited on skin): 200 mg/m^2
CC1CCC(C(C)(C)O)C(O)C1 (stereo not drawn) [Commercial cis PMD, p-menthane-3,8-diol] | 64 ± 15% | – | –
CC1CCC(C(C)(C)O)C(O)C1 (stereo not drawn) [Commercial trans PMD, p-menthane-3,8-diol] | 57 ± 6% | – | –
CCN(CC)C(=O)c1cccc(C)c1 [DEET, N,N diethyl-meta-toluamide] | – | – | % Repellency (Aedes albopictus; 110 mg/m^2 in EtOH): 63 ± 5% and 49 ± 4% and 68 ± 10% and 43 ± 1% and 41 ± 6% and 63 ± 8% and 73 ± 7% and 28 ± 8%; acetylcholinesterase inhibition (acetylcholinesterase): inhibits
CC1CCC(C(C)(C)O)C(O)C1 (stereo not drawn) [PMD, (2-hydroxypropan-2-yl)-5-methylcyclohexan-1-ol] | – | – | recognition in ElectroAntennogGraphy [1]: recognised at very low doses
CC(C)=CCCC(C)CC1OC2CC(C)CCC2C(C)(C)O1 (stereo not drawn) [acetals] | – | enhance the repellent activity of PMD | –
C=C1CC/C=C(\C)CC[C@@H]2[C@@H]1CC2(C)C [caryophyllene, (1R,4E,9S)-4,11,11-trimethyl-8-methylidenebicyclo[7.2.0]undec-4-ene] | – | enhances the repellent activity of PMD | recognition in ElectroAntennogGraphy [1]: recognised at very low doses
CC(C)=CCCC(C)CC=O (stereo not drawn) [citronellal, 3,7-dimethyloct-6-en-1-al] | – | does not boost PMD activity | –
CC(C)=CCCC(C)CCO (stereo not drawn) [citronellol, 3,7-dimethyloct-6-en-1-ol] | – | – | recognition in ElectroAntennogGraphy [1]: recognised at very low doses
C=C(C)C1CCC(C)CC1O (stereo not drawn) [isopulegol, 5-methyl-2-prop-1-en-2-ylcyclohexan-1-ol] | – | may enhance the repellent activity of PMD | –
